Counter-ions that a name gives are not always drawn.
Test system: Colon 26 solid tumor
Assay: Inhibitory activity of dye accumulation in the solid tumor tissue (inhibition of the tumor blood flow)
Assay type: in vivo, Male BALB/c mice
Design: key to Inhibitory activity of dye accumulation into solid tumor: +: The average absorbance in the test group is significantly smaller than the average absorbance in the control group.; -: There is no significant difference in the average absorbance between the test group and the control group
Details: intravenous, Evans blue 1 hour after administration
Procedure: Inhibitory activity of dye accumulation in the solid tumor tissue (inhibition of the tumor blood flow): a) Materials: Test Animal: Male BALB/c mice (weighing 21-27 g, six mice per group) Tumor: Colon 26 solid tumor b) Test Method: Colon 26 solid tumor was cut in a size of about 1 mm square. The pieces of solid tumor were treated with a 0.25% collagenase solution and 0.02% deoxyribonuclease solution at 37° C. for 1.5 hour to give a cell suspension of colon 26 solid tumor cells. The cell suspension was adjusted to 3×10^6 cells/ml and the cell suspension (100 μl) was subcutaneously inoculated on the right back of male BALB/c mice. Ten days after the transplantation, the longitudinal size of the tumor was measured, and when the longitudinal size of the tumor reached about 10 mm, the mice were randomized. To the mice in test groups, the test compound was intravenously administered in an amount of 10 mg/kg or 1.25 mg/kg. The test compound was administered in the form of a solution in saline (in the test solution of Test Compound BF and BK, an equimolar amount of fumaric acid was further added, and in the test solution of Test Compound BN, an equimolar amount of hydrochloric acid was further added). To the mice in the control group, only saline was administered intravenously. One hour after the administration, 3% Evans blue-saline solution was injected intravenously via the tail vein of the mice in a volume of 0.1 ml per 10 g of the body weight of mouse, and 5 minutes later the mice were killed by luxation of the cervical vertebrae. After removing the tumor, the tumor was weighed. To extract Evans blue, the tumor was suspensed in 0.5% aqueous sodium sulfate (1.5 ml per 1 g of the tumor) and acetone (3.5 ml per 1 g of tumor), and then the tumor was cut into small pieces. After allowing to stand at room temperature overnight, the suspension were centrifuged at 3,000 rpm for 10 minutes to extract Evans blue, and the absorbance of the supernatant was read at 630 nm. […] (-): There is no significant difference in the average absorbance between the test group and the control group.

Structure (SMILES) | Inhibitory activity of dye accumulation into solid tumor (1.25 mg/kg) | Inhibitory activity of dye accumulation into solid tumor (10 mg/kg)
Cl.O[C@@H]1COC[C@H]1Oc1nc(N2CCNCC2)nc2ccccc12 [Compound AK, 4-[(3R,4R)-(4-Hydroxytetrahydrofuran-3-yl)-oxy]-2-(1-piperazinyl)quinazoline monohydrochloride] | + | +
CC(=O)O.O[C@@H]1CCC[C@H]1Oc1nc(N2CCNCC2)nc2ccccc12 (relative stereo) [Compound AA, 4-[trans-(2-Hydroxycyclopentan-1-yl)oxy]-2-(1-piperazinyl)quinazoline monoacetate] | + | +
CC(=O)O.OCCOc1nc(N2CCNCC2)nc2ccccc12 [Compound BA, 4-[(2-Hydroxyethyl)oxy]-2-(1-piperazinyl)-quinazoline monoacetate] | + | +
CC(=O)O.O[C@H]1COC[C@@H]1Oc1nc(N2CCNCC2)nc2ccccc12 [Compound AH, 4-[(3S,4S)-(4-Hydroxytetrahydrofuran-3-yl)oxy]-2-(1-piperazinyl)quinazoline monoacetate] | + | +
O[C@H]1CCC[C@@H]1Oc1nc(N2CCNCC2)nc2ccccc12 [Compound AD, 4-[(1S,2S)-(2-Hydroxycyclopentan-1-yl)oxy]-2-(1-piperazinyl)quinazolinemonoacetate] | + | +
O[C@@H]1[C@H](O)[C@@H](Oc2nc(N3CCNCC3)nc3ccccc23)C[C@H]1O [Compound AP, 4-[(1S,2S,3S,4R)-(2,3,4-Trihydroxycyclopentan-1-yl)oxy]-2-(1-piperazinyl)quinazoline 1/2 fumarate] | + | +
O[C@@H]1COC[C@@H]1Oc1nc(N2CCNCC2)nc2ccccc12 (relative stereo) [Compound AG, 4-[cis-(4-Hydroxytetrahydrofuran-3-yl)oxy]-2-(1-piperazinyl)quinazolinemonoacetate] | + | +
O[C@@H]1CCC[C@H]1Oc1nc(N2CCNCC2)nc2ccccc12 [Compound AE, 4-[(1R,2R)-(2-Hydroxycyclopentan-1-yl)oxy]-2-(1-piperazinyl)quinazolinemonoacetate] | + | +
CC(=O)O.C[C@H](O)[C@@H](C)Oc1nc(N2CCNCC2)nc2ccccc12 (racemic) [Compound BC, 4-[(2RS,3SR)-(3-Hydroxybutan-2-yl)oxy]-2-(1-piperazinyl)quinazoline monoacetate] | + | +
CC(=O)O.O[C@@H]1COC[C@H]1Oc1nc(N2CCNCC2)nc2ccccc12 (relative stereo) [Compound AF, 4-[trans-(4-Hydroxytetrahydrofuran-3-yl)oxy]-2-(1-piperazinyl)quinazoline monoacetate] | + | +
O[C@@H]1[C@H](O)[C@@H](Oc2nc(N3CCNCC3)nc3ccccc23)C[C@H]1O (relative stereo) [Compound AO, 4-[(t-2,t-3,c-4-Trihydroxycyclopentan-r-1-yl)-oxy]-2-(1-piperazinyl)quinazoline 1/2 fumarate] | + | +
C[C@@H](O)[C@H](O)COc1nc(N2CCNCC2)nc2ccccc12.Cl [Compound BH, 4-[(2R,3R)-(2,3-Dihydroxybutan-1-yl)oxy]-2-(1-piperazinyl)quinazoline monohydrochloride] | + | +
CO[C@H]1C[C@@H](Oc2nc(N3CCNCC3)nc3ccccc23)[C@H](O)[C@@H]1O.Cl [Compound AT, 4-[(1R,2R,3S,4S)-(2,3-Dihydroxy-4-methoxy-cyclopentan-1-yl)oxy]-2-(1-piperazinyl)quinazoline mono-hydrochloride] | + | +
C[C@H](O)[C@@H](O)COc1nc(N2CCNCC2)nc2ccccc12.Cl [Compound BG, 4-[(2S,3S)-(2,3-Dihydroxybutan-1-yl)oxy]-2-(1-piperazinyl)quinazoline monohydrochloride] | + | +
Cl.OC[C@@H](O)CCOc1nc(N2CCNCC2)nc2ccccc12 [Compound BI, 4-[(3S)-(3,4-Dihydroxybutan-1-yl)oxy]-2-(1-piperazinyl)quinazoline monohydrochloride] | + | +
CC(=O)O.O[C@H]1CCC[C@H]1Oc1nc(N2CCNCC2)nc2ccccc12 (relative stereo) [Compound AB, 4-[cis-(2-Hydroxycyclopentan-1-yl)oxy]-2-(1-piperazinyl)quinazoline monoacetate] | - | +
O[C@@H]1[C@H](O)[C@@H](O)C[C@H]1Oc1nc(N2CCNCC2)nc2ccccc12 [Compound AQ, 4-[(1R,2R,3R,4S)-(2,3,4-Trihydroxycyclopentan-1-yl)oxy]-2-(1-piperazinyl)quinazoline 1/2 fumarate] | + | +
CC(=O)O.C[C@@H](O)[C@@H](C)Oc1nc(N2CCNCC2)nc2ccccc12 [Compound BE, 4-[(2R,3R)-(3-Hydroxybutan-2-yl)oxy]-2-(1-piperazinyl)quinazoline monoacetate] |  | +
C[C@@H](O)[C@H](O)COc1nc(N2CCNCC2)nc2ccccc12 (racemic) [Compound BF, 4-[(2RS,3RS)-(2,3-Dihydroxybutan-1-yl)oxy]-2-(1-piperazinyl)quinazoline] | + | +
O[C@@H]1C[C@H](Oc2nc(N3CCNCC3)nc3ccccc23)C[C@@H]1O [Compound AN, 4-[(c-3,c-4-Dihydroxycyclopentan-r-1-yl)oxy]-2-(1-piperazinyl)quinazoline monohydrochloride] | + | +
O[C@@H]1[C@@H](Oc2nc(N3CCNCC3)nc3ccccc23)CC[C@@H]1O (relative stereo) [Compound AL, 4-[(t-2,t-3-Dihydroxycyclopentan-r-1-yl)oxy]-2-(1-piperazinyl)quinazoline monoacetate] | + | +
Cl.OC[C@@H](O)[C@H](O)COc1nc(N2CCNCC2)nc2ccccc12 [Compound BM, 4-[(2R,3R)-(2,3,4-Trihydroxybutan-1-yl)oxy]-2-(1-piperazinyl)quinazoline monohydrochloride] | + | +

Reference: US5912247A, “Quinazoline compound and anti-tumor agent containing said compound as an active ingredient” (Kanebo, Ltd., priority 1995, dated 1999)
